Data: ChEMBL document CHEMBL1201862, “PubChem BioAssay data set” (2004)
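Results reflect a 48-hour exposure of cells in 96-well plates to compound at five concentrations. At the GI50, growth is halved.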 Activity calls are given as the source filed them. Cut-off read from the data, not from the text of the source: active = GI50 up to about 1.1 µM and inactive = higher.

Columns and labels:
Assay in all cases: NCI anticancer screen, dose series, 48 h
KM12 = system: KM12
NCI-H23 = system: NCI-H23
786-0 = system: 786-0
SF-295 = system: SF-295
PC-3 = system: PC-3
SK-MEL-5 = system: SK-MEL-5
DU-145 = system: DU-145
Malme-3M = system: Malme-3M
SK-OV-3 = system: SK-OV-3
NCI-H226 = system: NCI-H226
HCC 2998 = system: HCC 2998
A549 = system: A549
CCRF-CEM = system: CCRF-CEM
UACC-62 = system: UACC-62
ACHN = system: ACHN
MOLT-4 = system: MOLT-4
OVCAR-4 = system: OVCAR-4
NCI-H522 = system: NCI-H522
Hs-578T = system: Hs-578T
MCF7 = system: MCF7
MDA-MB-231 = system: MDA-MB-231
BT-549 = system: BT-549
RPMI-8226 = system: RPMI-8226
SN12C = system: SN12C
SNB-19 = system: SNB-19
U-251 = system: U-251
MDA-MB-435 = system: MDA-MB-435
RXF 393 = system: RXF 393
COLO 205 = system: COLO 205
HOP-62 = system: HOP-62
OVCAR-8 = system: OVCAR-8
HCT-116 = system: HCT-116
NCI-H460 = system: NCI-H460
SF-268 = system: SF-268
UO-31 = system: UO-31
M14 = system: M14
EKVX = system: EKVX
MDA-N = system: MDA-N
NCI/ADR-RES = system: NCI/ADR-RES
SK-MEL-28 = system: SK-MEL-28
HT-29 = system: HT-29
A498 = system: A498
HCT-15 = system: HCT-15
SW-620 = system: SW-620
TK-10 = system: TK-10
CAKI-1 = system: CAKI-1
T47D = system: T47D
K562 = system: K562
SF-539 = system: SF-539
HL-60 = system: HL-60
OVCAR-5 = system: OVCAR-5
HOP-92 = system: HOP-92
OVCAR-3 = system: OVCAR-3
SK-MEL-2 = system: SK-MEL-2
SNB-75 = system: SNB-75
LOX IMVI = system: LOX IMVI
IGROV-1 = system: IGROV-1
UACC-257 = system: UACC-257
SR = system: SR

c1ccc2c(c1)Cn1c-2nc2ccccc21
GI50 (KM12): > 100 µM (inactive)
GI50 (NCI-H23): > 100 µM (inactive)
GI50 (786-0): > 100 µM (inactive)
GI50 (SF-295): > 100 µM (inactive)
GI50 (PC-3): > 100 µM (inactive)
GI50 (SK-MEL-5): 42.4 µM (inactive)
GI50 (DU-145): 23.9 µM (inactive)
GI50 (Malme-3M): 76 µM (inactive)
GI50 (SK-OV-3): > 100 µM (inactive)
GI50 (NCI-H226): 61.7 µM (inactive)
GI50 (HCC 2998): > 100 µM (inactive)
GI50 (A549): 67.6 µM (inactive)
GI50 (CCRF-CEM): > 100 µM (inactive)
GI50 (UACC-62): > 100 µM (inactive)
GI50 (ACHN): 96.6 µM (inactive)
GI50 (MOLT-4): 31.1 µM (inactive)
GI50 (OVCAR-4): > 100 µM (inactive)
GI50 (NCI-H522): 43.1 µM (inactive)
GI50 (Hs-578T): > 100 µM (inactive)
GI50 (MCF7): > 100 µM (inactive)
GI50 (MDA-MB-231): > 100 µM (inactive)
GI50 (BT-549): > 100 µM (inactive)
GI50 (RPMI-8226): 65 µM (inactive)
GI50 (SN12C): > 100 µM (inactive)
GI50 (SNB-19): > 100 µM (inactive)
GI50 (U-251): > 100 µM (inactive)
GI50 (MDA-MB-435): > 100 µM (inactive)
GI50 (RXF 393): 82 µM (inactive)
GI50 (COLO 205): 98.4 µM (inactive)
GI50 (HOP-62): > 100 µM (inactive)
GI50 (OVCAR-8): > 100 µM (inactive)
GI50 (HCT-116): > 100 µM (inactive)
GI50 (NCI-H460): 97.3 µM (inactive)
GI50 (SF-268): > 100 µM (inactive)
GI50 (UO-31): 4.83 µM (inactive)
GI50 (M14): > 100 µM (inactive)
GI50 (EKVX): > 100 µM (inactive)
GI50 (MDA-N): > 100 µM (inactive)
GI50 (NCI/ADR-RES): > 100 µM (inactive)
GI50 (SK-MEL-28): > 100 µM (inactive)
GI50 (HT-29): > 100 µM (inactive)
GI50 (A498): > 100 µM (inactive)
GI50 (HCT-15): 94.4 µM
GI50 (SW-620): > 100 µM (inactive)
GI50 (TK-10): > 100 µM (inactive)
GI50 (CAKI-1): > 100 µM (inactive)
GI50 (T47D): > 100 µM (inactive)
GI50 (K562): > 100 µM (inactive)
GI50 (SF-539): > 100 µM (inactive)
GI50 (HL-60): > 100 µM (inactive)
GI50 (OVCAR-5): > 100 µM (inactive)
GI50 (HOP-92): > 100 µM (inactive)
GI50 (OVCAR-3): > 100 µM (inactive)
GI50 (SK-MEL-2): > 100 µM (inactive)
GI50 (SNB-75): < 0.01 µM (active)
GI50 (LOX IMVI): > 100 µM (inactive)
GI50 (IGROV-1): > 100 µM (inactive)
GI50 (UACC-257): > 100 µM (inactive)

c1ccc(C(=NNc2nc3ccccc3[nH]2)c2ccccn2)nc1
GI50 (KM12): 0.298 µM (active)
GI50 (NCI-H23): 0.24 µM (active)
GI50 (786-0): 0.123 µM (active)
GI50 (SF-295): 2.13 µM (inactive)
GI50 (PC-3): 0.224 µM (active)
GI50 (SK-MEL-5): 0.159 µM (active)
GI50 (DU-145): 0.268 µM (active)
GI50 (SK-OV-3): 0.103 µM (active)
GI50 (NCI-H226): 0.0625 µM (active)
GI50 (HCC 2998): 15 µM (inactive)
GI50 (A549): 0.3 µM (active)
GI50 (CCRF-CEM): 0.0313 µM (active)
GI50 (UACC-62): 0.222 µM (active)
GI50 (ACHN): 0.114 µM (active)
GI50 (MOLT-4): 0.015 µM (active)
GI50 (OVCAR-4): 0.0592 µM (active)
GI50 (NCI-H522): 0.0288 µM (active)
GI50 (Hs-578T): 7.53 µM (inactive)
GI50 (MCF7): 0.143 µM (active)
GI50 (MDA-MB-231): 0.166 µM (active)
GI50 (BT-549): 0.48 µM (active)
GI50 (RPMI-8226): 0.129 µM (active)
GI50 (SN12C): 0.128 µM (active)
GI50 (SNB-19): 0.33 µM (active)
GI50 (U-251): 0.171 µM (active)
GI50 (MDA-MB-435): 0.348 µM (active)
GI50 (RXF 393): 0.197 µM (active)
GI50 (COLO 205): 0.0257 µM (active)
GI50 (SR): 0.0371 µM (active)
GI50 (HOP-62): 0.207 µM (active)
GI50 (OVCAR-8): 0.0993 µM (active)
GI50 (HCT-116): 0.0832 µM (active)
GI50 (NCI-H460): 0.134 µM (active)
GI50 (SF-268): 0.13 µM (active)
GI50 (UO-31): 0.0847 µM (active)
GI50 (M14): 0.126 µM (active)
GI50 (EKVX): 0.929 µM (active)
GI50 (MDA-N): 0.394 µM (active)
GI50 (NCI/ADR-RES): 0.115 µM (active)
GI50 (SK-MEL-28): 0.185 µM (active)
GI50 (HT-29): 0.0221 µM (active)
GI50 (A498): 0.36 µM (active)
GI50 (HCT-15): 0.115 µM
GI50 (SW-620): 0.0698 µM (active)
GI50 (TK-10): 0.121 µM (active)
GI50 (CAKI-1): 0.102 µM (active)
GI50 (T47D): 0.0131 µM (active)
GI50 (K562): 0.172 µM (active)
GI50 (SF-539): 0.177 µM (active)
GI50 (OVCAR-5): 1.74 µM (inactive)
GI50 (HOP-92): 0.0232 µM (active)
GI50 (OVCAR-3): 0.0393 µM (active)
GI50 (SK-MEL-2): 12.9 µM (inactive)
GI50 (SNB-75): 0.218 µM (active)
GI50 (LOX IMVI): 0.172 µM (active)
GI50 (IGROV-1): 0.112 µM (active)
GI50 (UACC-257): 0.145 µM (active)

CC(=O)NC(c1nc2cc(C)c(C)cc2[nH]1)c1nc2cc(C)c(C)cc2[nH]1
GI50 (KM12): 16 µM (inactive)
GI50 (NCI-H23): 32.2 µM (inactive)
GI50 (SF-295): 22.4 µM (inactive)
GI50 (PC-3): 24.8 µM (inactive)
GI50 (SK-MEL-5): 15.2 µM (inactive)
GI50 (DU-145): 20.2 µM (inactive)
GI50 (Malme-3M): 29 µM (inactive)
GI50 (SK-OV-3): 17.7 µM (inactive)
GI50 (HCC 2998): 16.9 µM (inactive)
GI50 (A549): 21.3 µM (inactive)
GI50 (CCRF-CEM): 7.05 µM (inactive)
GI50 (UACC-62): 32.7 µM (inactive)
GI50 (ACHN): 29.2 µM (inactive)
GI50 (MOLT-4): 2.86 µM (inactive)
GI50 (OVCAR-4): 21.9 µM (inactive)
GI50 (NCI-H522): 5.12 µM (inactive)
GI50 (Hs-578T): 36.8 µM (inactive)
GI50 (MCF7): 23.9 µM (inactive)
GI50 (MDA-MB-231): 26.1 µM (inactive)
GI50 (BT-549): 23.2 µM (inactive)
GI50 (RPMI-8226): 4.57 µM (inactive)
GI50 (SN12C): 15.9 µM (inactive)
GI50 (SNB-19): 41.5 µM (inactive)
GI50 (U-251): 20.9 µM (inactive)
GI50 (MDA-MB-435): 17.7 µM (inactive)
GI50 (RXF 393): 26.3 µM (inactive)
GI50 (COLO 205): 18 µM (inactive)
GI50 (OVCAR-8): 20 µM (inactive)
GI50 (HCT-116): 19.1 µM (inactive)
GI50 (NCI-H460): 11.7 µM (inactive)
GI50 (SF-268): 23.2 µM (inactive)
GI50 (UO-31): 25.4 µM (inactive)
GI50 (M14): 25.4 µM (inactive)
GI50 (EKVX): 24.3 µM (inactive)
GI50 (MDA-N): 19.1 µM (inactive)
GI50 (NCI/ADR-RES): 28.9 µM (inactive)
GI50 (SK-MEL-28): 17.7 µM (inactive)
GI50 (HT-29): 15.2 µM (inactive)
GI50 (A498): 17.9 µM (inactive)
GI50 (HCT-15): 21.2 µM
GI50 (SW-620): 22.3 µM (inactive)
GI50 (TK-10): 28.1 µM (inactive)
GI50 (CAKI-1): 20.3 µM (inactive)
GI50 (T47D): 43 µM (inactive)
GI50 (K562): 1.02 µM (active)
GI50 (SF-539): 14.1 µM (inactive)
GI50 (HL-60): 28.2 µM (inactive)
GI50 (OVCAR-5): 41.7 µM (inactive)
GI50 (HOP-92): 19.8 µM (inactive)
GI50 (OVCAR-3): 13.9 µM (inactive)
GI50 (SK-MEL-2): 36.8 µM (inactive)
GI50 (SNB-75): 22.1 µM (inactive)
GI50 (LOX IMVI): 19 µM (inactive)
GI50 (IGROV-1): 11.7 µM (inactive)
GI50 (UACC-257): 21.3 µM (inactive)
